Values of other authors in PMC10254170, “Diastereoselective Synthesis of the Borylated D-Galactose Monosaccharide 3-Boronic-3-Deoxy-D-Galactose and Biological Evaluation in Glycosidase Inhibition and in Cancer for Boron Neutron Capture Therapy (BNCT)” (Molecules, 2023).

Tested on: human
Conditions: 5 min; cited from earlier work

In the case of c1ccccc1 [benzene], the LCLO is listed as 20,000 ppm.
